# Measured values from ChEMBL document CHEMBL5338777, “Small-Molecule Modulators Targeting Toll-like Receptors for Potential Anticancer Therapeutics” (J Med Chem, 2023).
# Legend:
# [1] = target: T1, Toll-like receptor 1/2 (Homo sapiens, UniProt O60603+Q15399); test: Antagonist activity at human TLR1/TLR2; type: protein-complex assay
# [2] = target: T2, TLR2/TLR6 (Homo sapiens, UniProt O60603+Q9Y2C9); test: Antagonist activity at human TLR2/TLR6; type: protein-complex assay
# [3] = target: T2, TLR2/TLR6; test: Antagonist activity at TLR2/TLR6 in human THP-1 cells; type: cell-based
# [4] = target: T1, Toll-like receptor 1/2; test: Antagonist activity at TLR1/TLR2 in HEK-Blue hTLR2 cells; type: cell-based
# [5] = target: T3, Toll-like receptor 7 (Homo sapiens, UniProt Q9NYK1)
# T3 sequence (Q9NYK1 whole entry): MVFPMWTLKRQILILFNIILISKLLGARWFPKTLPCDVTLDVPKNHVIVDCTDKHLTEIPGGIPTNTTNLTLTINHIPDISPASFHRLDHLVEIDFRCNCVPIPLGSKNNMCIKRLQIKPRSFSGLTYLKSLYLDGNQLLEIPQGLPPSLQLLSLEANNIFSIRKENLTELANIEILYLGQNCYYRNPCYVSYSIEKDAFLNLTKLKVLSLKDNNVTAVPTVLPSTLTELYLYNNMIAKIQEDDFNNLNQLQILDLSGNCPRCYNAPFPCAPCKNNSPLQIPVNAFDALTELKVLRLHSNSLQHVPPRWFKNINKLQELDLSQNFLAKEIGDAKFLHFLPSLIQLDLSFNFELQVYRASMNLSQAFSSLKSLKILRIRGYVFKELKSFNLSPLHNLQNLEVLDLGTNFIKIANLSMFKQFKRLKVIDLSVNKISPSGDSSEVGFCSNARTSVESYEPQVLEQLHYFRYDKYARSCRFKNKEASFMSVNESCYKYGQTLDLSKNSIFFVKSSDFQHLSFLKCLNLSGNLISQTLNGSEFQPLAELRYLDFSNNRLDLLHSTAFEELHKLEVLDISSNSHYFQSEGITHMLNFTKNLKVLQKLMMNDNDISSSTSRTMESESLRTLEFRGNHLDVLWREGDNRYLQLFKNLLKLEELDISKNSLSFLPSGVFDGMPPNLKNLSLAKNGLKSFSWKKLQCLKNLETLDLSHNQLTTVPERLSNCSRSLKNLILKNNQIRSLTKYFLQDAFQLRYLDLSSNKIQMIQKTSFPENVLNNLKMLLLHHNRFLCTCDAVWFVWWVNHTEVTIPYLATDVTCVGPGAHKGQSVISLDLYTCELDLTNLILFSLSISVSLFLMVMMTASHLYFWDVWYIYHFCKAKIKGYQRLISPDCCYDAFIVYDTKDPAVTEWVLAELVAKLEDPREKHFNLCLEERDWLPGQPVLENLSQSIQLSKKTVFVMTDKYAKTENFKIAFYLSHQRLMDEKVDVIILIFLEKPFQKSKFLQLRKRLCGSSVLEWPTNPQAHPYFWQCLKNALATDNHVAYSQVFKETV
# Description: (§1) Agonist activity at TLR7 (unknown origin)
# [6] = target: T1, Toll-like receptor 1/2; test: Antagonist activity at TLR1/TLR2 (unknown origin); type: protein-complex assay
# [7] = target: T4, Toll-like receptor 3 (Homo sapiens, UniProt O15455); test: Antagonist activity at TLR3 (unknown origin)
# T4 sequence (O15455 whole entry): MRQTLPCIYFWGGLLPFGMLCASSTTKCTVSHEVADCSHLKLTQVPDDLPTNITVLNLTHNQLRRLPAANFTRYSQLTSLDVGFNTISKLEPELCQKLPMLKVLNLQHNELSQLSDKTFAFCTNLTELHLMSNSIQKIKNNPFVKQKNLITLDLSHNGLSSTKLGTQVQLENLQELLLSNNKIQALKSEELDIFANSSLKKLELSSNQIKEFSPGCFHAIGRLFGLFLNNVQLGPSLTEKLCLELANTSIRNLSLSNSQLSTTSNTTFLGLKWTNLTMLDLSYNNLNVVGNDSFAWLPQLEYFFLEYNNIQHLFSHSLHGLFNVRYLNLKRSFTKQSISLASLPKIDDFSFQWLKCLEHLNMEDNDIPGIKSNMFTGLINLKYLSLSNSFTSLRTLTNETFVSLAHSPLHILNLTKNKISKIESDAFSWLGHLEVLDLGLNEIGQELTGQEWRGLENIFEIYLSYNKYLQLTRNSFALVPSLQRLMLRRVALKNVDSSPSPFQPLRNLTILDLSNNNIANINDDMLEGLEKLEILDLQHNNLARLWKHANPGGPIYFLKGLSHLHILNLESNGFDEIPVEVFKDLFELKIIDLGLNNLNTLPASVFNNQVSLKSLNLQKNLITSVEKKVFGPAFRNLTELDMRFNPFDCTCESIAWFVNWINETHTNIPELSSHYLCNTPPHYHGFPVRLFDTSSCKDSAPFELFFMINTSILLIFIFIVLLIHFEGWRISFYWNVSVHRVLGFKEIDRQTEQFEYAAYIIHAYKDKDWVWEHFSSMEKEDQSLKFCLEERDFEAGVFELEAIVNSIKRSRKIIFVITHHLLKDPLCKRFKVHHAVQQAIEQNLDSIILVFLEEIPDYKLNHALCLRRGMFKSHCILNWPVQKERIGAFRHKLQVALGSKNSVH
# [8] = target: T5, Toll-like receptor 8 (Homo sapiens, UniProt Q9NR97); test: Binding affinity to human TLR8 expressed in HEK-Blue hTLR8 cells; type: cell-based
# T5 sequence (Q9NR97 whole entry): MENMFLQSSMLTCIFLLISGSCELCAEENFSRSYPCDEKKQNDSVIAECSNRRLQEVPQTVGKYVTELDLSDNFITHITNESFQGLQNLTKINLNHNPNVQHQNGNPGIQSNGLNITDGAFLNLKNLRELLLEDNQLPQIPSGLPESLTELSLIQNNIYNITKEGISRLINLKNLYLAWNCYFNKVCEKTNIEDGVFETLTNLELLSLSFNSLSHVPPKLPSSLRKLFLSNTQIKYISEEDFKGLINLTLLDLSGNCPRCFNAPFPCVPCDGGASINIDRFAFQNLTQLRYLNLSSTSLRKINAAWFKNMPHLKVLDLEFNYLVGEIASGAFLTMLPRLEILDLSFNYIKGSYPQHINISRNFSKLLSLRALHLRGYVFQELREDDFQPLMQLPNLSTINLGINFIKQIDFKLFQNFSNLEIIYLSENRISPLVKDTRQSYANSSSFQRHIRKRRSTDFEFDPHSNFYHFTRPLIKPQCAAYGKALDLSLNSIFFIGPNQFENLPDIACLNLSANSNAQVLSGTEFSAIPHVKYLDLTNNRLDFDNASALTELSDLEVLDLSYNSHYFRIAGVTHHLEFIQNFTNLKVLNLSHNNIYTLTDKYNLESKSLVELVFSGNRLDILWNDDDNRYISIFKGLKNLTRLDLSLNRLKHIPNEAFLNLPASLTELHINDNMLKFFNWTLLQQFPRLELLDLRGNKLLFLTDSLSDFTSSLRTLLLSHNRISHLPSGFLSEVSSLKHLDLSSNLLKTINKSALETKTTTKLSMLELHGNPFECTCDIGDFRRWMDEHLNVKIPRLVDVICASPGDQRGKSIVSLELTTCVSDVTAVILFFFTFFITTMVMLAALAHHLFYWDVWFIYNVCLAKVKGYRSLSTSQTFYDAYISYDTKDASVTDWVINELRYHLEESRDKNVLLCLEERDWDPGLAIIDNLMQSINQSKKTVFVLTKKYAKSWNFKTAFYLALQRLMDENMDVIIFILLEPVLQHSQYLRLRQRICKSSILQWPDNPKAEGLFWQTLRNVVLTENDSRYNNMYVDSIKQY
# [9] = target: T1, Toll-like receptor 1/2
# Description: Agonist activity at TLR1/TLR2 in human THP-1 cells
# [10] = target: T5, Toll-like receptor 8; test: Antagonist activity at human TLR8
# [11] = target: T5, Toll-like receptor 8
# Description: (§2) Agonist activity at TLR8 (unknown origin)
# [12] = target: T3, Toll-like receptor 7; remark: listed apart in the source
# Description: as §1
# [13] = target: Toll-like receptor 5 (Homo sapiens, UniProt O60602); test: Antagonist activity at TLR5 (unknown origin)
# Toll-like receptor 5, sequence (O60602 whole entry): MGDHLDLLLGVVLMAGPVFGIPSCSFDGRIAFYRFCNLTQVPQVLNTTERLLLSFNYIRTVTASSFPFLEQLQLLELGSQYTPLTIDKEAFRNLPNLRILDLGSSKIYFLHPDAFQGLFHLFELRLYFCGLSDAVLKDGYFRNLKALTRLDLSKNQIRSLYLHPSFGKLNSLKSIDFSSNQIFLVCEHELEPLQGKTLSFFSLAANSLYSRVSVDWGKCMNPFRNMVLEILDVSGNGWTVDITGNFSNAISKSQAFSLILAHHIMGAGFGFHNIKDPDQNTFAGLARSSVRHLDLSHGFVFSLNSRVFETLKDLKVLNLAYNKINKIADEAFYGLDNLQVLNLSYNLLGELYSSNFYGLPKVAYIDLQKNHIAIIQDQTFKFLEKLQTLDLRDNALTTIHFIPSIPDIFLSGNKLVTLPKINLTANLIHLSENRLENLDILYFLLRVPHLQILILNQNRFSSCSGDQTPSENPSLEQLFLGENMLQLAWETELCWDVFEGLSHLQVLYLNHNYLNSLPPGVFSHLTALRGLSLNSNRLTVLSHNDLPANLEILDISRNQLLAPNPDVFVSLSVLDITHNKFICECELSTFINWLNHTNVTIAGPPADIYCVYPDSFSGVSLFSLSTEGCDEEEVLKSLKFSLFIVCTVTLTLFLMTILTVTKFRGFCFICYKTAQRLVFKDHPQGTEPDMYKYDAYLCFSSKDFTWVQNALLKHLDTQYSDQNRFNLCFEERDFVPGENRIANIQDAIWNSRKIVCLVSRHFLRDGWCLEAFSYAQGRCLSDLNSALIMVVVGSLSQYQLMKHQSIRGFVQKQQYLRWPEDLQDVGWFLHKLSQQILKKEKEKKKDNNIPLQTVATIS
# [14] = Antagonist activity at TLR2/TLR4 (unknown origin); set-up: species or system Homo sapiens
# [15] = target: T5, Toll-like receptor 8; remark: listed apart in the source
# Description: as §2
# [16] = target: T6, Toll-like receptor 4 (Mus musculus, UniProt Q9QUK6); test: Antagonist activity at TLR4 in mouse peritoneal macrophages assessed as inhibition of TNF-alpha production; type: cell-based, Peritoneal macrophage
# T6 sequence (Q9QUK6 whole entry): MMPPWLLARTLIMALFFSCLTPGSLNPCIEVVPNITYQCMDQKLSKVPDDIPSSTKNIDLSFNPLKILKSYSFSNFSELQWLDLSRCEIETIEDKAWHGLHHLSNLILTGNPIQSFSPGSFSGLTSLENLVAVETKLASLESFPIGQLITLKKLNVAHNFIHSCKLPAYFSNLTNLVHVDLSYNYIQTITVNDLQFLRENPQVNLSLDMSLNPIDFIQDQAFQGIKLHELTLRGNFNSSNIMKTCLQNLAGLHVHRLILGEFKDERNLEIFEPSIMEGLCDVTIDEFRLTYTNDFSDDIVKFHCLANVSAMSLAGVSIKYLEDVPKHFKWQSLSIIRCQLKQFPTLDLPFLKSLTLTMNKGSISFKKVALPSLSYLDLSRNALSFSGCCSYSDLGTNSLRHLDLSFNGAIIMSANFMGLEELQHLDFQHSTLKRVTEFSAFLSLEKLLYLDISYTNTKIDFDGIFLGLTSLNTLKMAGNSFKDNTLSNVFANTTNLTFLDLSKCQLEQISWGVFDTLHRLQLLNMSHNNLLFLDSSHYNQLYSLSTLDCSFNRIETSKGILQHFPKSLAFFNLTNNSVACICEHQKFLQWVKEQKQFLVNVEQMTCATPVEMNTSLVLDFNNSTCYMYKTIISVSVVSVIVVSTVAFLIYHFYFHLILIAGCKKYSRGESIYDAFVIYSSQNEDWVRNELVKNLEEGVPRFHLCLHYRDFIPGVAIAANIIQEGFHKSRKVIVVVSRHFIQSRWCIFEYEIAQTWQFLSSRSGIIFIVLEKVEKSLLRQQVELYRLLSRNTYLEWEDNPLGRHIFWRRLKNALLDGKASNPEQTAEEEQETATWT
# [17] = target: T6, Toll-like receptor 4; test: Antagonist activity at TLR4 in mouse peritoneal macrophages assessed as inhibition of IL-6 production; type: cell-based, Peritoneal macrophage
# [18] = target: T6, Toll-like receptor 4; test: Antagonist activity at TLR4 in mouse peritoneal macrophages assessed as inhibition of NO production; type: cell-based, Peritoneal macrophage
# [19] = target: Toll-like receptor 4 (Homo sapiens, UniProt O00206); test: Inhibition of TLR4 in human HEK293T cells co-expressing MD-2 receptor; type: cell-based
# Toll-like receptor 4 (Homo sapiens, UniProt O00206), sequence (O00206 whole entry): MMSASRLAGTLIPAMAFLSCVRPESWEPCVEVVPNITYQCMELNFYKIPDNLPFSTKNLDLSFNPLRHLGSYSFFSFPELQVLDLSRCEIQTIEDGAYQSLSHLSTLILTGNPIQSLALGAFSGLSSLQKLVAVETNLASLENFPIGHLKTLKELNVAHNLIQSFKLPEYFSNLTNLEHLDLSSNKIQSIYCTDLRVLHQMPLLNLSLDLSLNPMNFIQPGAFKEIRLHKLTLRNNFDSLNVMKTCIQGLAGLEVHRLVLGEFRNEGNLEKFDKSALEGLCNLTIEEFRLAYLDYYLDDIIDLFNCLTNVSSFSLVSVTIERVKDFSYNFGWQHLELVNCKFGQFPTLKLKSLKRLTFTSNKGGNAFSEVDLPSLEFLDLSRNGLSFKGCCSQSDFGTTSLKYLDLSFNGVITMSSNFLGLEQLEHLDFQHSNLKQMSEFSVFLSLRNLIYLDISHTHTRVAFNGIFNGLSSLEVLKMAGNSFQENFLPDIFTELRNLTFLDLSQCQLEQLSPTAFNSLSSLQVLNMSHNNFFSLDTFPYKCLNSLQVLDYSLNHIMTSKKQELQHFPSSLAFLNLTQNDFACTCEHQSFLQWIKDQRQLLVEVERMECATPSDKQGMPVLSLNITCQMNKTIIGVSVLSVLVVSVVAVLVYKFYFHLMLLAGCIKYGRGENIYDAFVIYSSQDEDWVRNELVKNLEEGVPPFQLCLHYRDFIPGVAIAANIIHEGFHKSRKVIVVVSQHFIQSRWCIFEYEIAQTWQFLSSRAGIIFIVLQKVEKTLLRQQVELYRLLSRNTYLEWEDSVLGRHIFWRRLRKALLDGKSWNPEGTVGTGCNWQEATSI
# T2 sequence (O60603 whole entry): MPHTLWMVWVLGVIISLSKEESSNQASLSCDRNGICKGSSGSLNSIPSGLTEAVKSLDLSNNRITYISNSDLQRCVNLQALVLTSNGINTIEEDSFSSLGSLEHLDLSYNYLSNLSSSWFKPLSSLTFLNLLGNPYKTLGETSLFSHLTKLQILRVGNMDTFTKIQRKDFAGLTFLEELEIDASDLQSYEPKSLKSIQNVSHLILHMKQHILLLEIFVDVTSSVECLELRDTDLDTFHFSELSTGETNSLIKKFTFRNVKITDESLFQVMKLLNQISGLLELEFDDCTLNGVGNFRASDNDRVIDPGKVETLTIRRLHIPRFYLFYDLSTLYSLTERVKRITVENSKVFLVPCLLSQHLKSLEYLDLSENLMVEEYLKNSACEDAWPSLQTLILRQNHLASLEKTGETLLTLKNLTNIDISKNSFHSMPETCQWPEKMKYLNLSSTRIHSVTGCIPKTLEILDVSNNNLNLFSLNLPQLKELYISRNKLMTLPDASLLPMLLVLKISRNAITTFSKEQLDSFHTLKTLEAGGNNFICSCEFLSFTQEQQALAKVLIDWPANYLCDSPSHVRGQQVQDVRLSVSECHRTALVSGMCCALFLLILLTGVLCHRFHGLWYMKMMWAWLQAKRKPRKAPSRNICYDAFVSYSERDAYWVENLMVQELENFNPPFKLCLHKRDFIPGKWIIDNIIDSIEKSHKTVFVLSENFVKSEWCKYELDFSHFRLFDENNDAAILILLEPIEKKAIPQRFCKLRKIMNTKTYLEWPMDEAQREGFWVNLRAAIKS
# T2 sequence (Q9Y2C9 whole entry): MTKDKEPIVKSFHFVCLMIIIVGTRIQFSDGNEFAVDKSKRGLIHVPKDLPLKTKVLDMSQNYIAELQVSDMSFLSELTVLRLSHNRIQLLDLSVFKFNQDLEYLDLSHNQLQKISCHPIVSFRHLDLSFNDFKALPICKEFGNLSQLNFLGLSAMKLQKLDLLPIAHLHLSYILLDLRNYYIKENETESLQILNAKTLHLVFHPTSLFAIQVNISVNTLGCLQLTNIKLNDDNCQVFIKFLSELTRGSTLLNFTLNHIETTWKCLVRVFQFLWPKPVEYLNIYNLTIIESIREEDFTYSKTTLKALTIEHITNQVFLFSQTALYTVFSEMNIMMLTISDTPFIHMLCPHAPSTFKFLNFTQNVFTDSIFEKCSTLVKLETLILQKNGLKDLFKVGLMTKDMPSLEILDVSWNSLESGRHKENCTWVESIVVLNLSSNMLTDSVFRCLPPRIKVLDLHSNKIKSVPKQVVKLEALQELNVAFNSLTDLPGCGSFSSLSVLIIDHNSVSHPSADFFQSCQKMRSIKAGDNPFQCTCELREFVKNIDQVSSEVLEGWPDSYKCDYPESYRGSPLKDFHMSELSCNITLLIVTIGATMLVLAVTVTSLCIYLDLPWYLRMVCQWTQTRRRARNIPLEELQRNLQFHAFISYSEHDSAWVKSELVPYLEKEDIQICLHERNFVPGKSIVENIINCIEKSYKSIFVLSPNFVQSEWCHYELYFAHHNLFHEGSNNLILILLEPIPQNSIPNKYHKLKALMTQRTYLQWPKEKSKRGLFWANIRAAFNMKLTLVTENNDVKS
# T1 sequence (O60603 whole entry): as the sequence (O60603 whole entry) above
# T1 sequence (Q15399 whole entry): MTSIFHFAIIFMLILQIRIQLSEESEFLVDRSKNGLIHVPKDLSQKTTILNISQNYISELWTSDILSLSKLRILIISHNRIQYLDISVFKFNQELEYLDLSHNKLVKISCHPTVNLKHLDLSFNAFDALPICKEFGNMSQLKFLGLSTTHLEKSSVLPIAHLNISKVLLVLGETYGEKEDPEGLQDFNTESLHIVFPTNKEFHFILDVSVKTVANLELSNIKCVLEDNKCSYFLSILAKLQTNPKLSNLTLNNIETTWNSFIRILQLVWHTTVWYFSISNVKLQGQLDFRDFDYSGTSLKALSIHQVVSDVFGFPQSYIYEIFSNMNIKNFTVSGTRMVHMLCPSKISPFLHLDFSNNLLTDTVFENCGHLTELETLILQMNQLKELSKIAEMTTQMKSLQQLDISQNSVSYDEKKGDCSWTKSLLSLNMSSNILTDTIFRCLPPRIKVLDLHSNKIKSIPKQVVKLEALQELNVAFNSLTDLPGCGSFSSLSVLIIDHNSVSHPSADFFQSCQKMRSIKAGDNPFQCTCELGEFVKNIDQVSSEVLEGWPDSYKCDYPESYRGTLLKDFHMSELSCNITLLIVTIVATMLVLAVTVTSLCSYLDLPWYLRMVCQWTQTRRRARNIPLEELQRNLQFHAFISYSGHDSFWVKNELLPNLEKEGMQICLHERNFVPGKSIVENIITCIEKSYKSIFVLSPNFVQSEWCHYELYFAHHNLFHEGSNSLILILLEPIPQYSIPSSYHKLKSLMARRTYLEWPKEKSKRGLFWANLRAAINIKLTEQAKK
compound,measurement,setting,value
CCOC(=O)c1ccc(CC(=O)c2ccc(O)c(O)c2O)o1,IC50,[1],1700 nM
same,IC50,[2],5700 nM
COc1cccc(C=O)c1O,IC50,[3],37200 nM
same,IC50,[4],24200 nM
COCCOc1nc(N)c2[nH]c(=O)n(Cc3ccccc3)c2n1,EC50,[5],140 nM
CCCCCCOC(=O)c1cc(O)c(=O)c2c(O)c(O)c(OC)cc2c1,IC50,[6],580 nM
same,IC50,[1],9100 nM
same,IC50,[2],5600 nM
COc1cccc(/C=N/c2cccc(C(=O)O)c2C)c1O,IC50,[3],37600 nM
same,IC50,[4],19700 nM
O=C(N[C@H](Cc1ccccc1)C(=O)O)c1sc2cc(F)ccc2c1Cl,IC50,[7],3440 nM
Cc1cccc(-c2ccnc3c(C(N)=O)cnn23)c1,Kd,[8],220 nM
CCOC(=O)c1c(NC(=O)N2CCN(C)CC2)sc2c1CCC2,EC50,[9],550 nM
COc1ccc2c(-c3cnc(OCc4ccccc4)c(C)c3)ccnc2c1,IC50,[10],0.8 nM
COc1ccc2c(-c3ccc(OCCCCO)c(C)c3)ccnc2c1,IC50,[10],0.1 nM
O=C(N[C@H](Cc1ccccc1)C(=O)O)c1cc2c(s1)CCCCC2,IC50,[7],154000 nM
CCCCn1cc2c(n1)c(N)nc1ccccc12,EC50,[11],56 nM
same,EC50,[12],190 nM
CCCN(CCC)C(=O)C1=Cc2ccc(C(=O)NC(c3ccccc3)c3ccccc3)cc2N=C(N)C1,EC50,[5],> 100 nM
CCCN(CCC)C(=O)C1=Cc2ccc(C(=O)N3CC4(C3)CN(c3ccc(C)cc3)C4)cc2N=C(N)C1,EC50,[5],> 100 nM
c1ccc(-n2c(Sc3ncnc4c3sc3ncccc34)nnc2-c2ccncc2)cc1,IC50,[13],3130 nM
O=c1occ2c3c(ccc(O)c13)Oc1ccc(O)cc1-2,IC50,[14],~10000 nM
CCCCc1nc2c(N)nc3ccccc3c2o1,EC50,[11],180 nM
CCCN(CCC)C(=O)C1=Cc2ccc(-c3cccc(C(=O)CC)c3)cc2N=C(N)C1,EC50,[15],8 nM
same,EC50,[5],16 nM
Cc1cc(C)c2c(n1)sc1c(Sc3nnc(-c4ccncc4)o3)ncnc12,IC50,[13],50500 nM
c1cnc2sc3c(Sc4nnc(-c5ccncc5)o4)ncnc3c2c1,IC50,[13],3380 nM
CCc1nc2c(N)nc3ccccc3c2n1CCCCNS(C)(=O)=O [CPG-52852],EC50,[5],~3000 nM
CCCN(CCC)C(=O)C1=Cc2ccc(-c3ccc(C(=O)N4CCCC4)cc3)cc2N=C(N)C1 [MOTOLIMOD],EC50,[15],~100 nM
CCOC(=O)C1=CCCC[C@H]1S(=O)(=O)Nc1ccc(F)cc1Cl [RESATORVID],IC50,[16],1.9 nM
same,IC50,[17],1.3 nM
same,IC50,[18],1.8 nM
CCCCCCCCCC(CCCCCCCCC)CC(=O)OC[C@H]1O[C@H](O[C@H]2O[C@H](COC(=O)CC(CCCCCCCCC)CCCCCCCCC)[C@@H](O)[C@H](O)[C@H]2O)[C@H](O)[C@@H](O)[C@@H]1O [VIZANTIN],IC50,[19],53 nM
